*1 amine or outer side, *2 acyl side, *3 side chain or, on linkers, in order; H or OH if unused. Where a SMILES comes first, the peptide text is derived from it. Side-chain parts run from the residue outwards. [ ]: non-standard residue; d: D form. The star is where a group is joined. C20 diacid = O=C(O)CCCCCCCCCCCCCCCCCCC(=O)*; C18 diacid = O=C(O)CCCCCCCCCCCCCCCCC(=O)*; αMePhe(2-F) = C[C@](N)(Cc1ccccc1F)C(=O)O; γGlu = O=C(O)[C@H](CCC(=O)[*:2])N[*:1]; 4Pal = N[C@@H](Cc1ccncc1)C(=O)O; αMeL = CC(C)C[C@](C)(N)C(=O)O; Iva = CC[C@](C)(N)C(=O)O; Orn = NCCC[C@H](N)C(=O)O; AEEA = NCCOCCOCC(=O)O; Aib = CC(C)(N)C(=O)O
Biological target: T1, human GcgR (Homo sapiens, UniProt P47871)
T1 construct: expressed in transfected cells; crude membranes
T1 sequence (P47871 26-477): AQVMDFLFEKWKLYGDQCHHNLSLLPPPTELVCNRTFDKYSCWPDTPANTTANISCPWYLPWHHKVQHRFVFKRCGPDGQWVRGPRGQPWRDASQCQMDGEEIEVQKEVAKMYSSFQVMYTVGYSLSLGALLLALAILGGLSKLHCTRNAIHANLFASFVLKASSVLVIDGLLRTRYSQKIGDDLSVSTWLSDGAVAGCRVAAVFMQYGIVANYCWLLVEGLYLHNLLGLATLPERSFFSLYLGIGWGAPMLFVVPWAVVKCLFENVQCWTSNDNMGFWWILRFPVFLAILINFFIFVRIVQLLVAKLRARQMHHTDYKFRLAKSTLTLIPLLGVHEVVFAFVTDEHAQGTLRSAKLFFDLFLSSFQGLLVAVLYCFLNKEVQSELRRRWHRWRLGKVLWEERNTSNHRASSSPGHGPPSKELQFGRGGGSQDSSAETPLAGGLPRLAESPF
Assay: [125I]-Glucagon binding, SPA with WGA beads, 0.1% bacitracin
Details: geometric mean, read-out: hGcgR Ki
In short: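 SPA competition binding with WGA beads on crude membranes from HEK293 cells stably expressing hGcgR. Buffer: 25 mM HEPES pH 7.4, 2.5 mM CaCl2, 1 mM MgCl2, 0.1% bacitracin, 0.003% Tween-20; 10-point 3-fold dilutions, NSB with 1 μM Gcg.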

| Structure (SMILES) | Ki [nM] |
| --- | --- |
| CC[C@H](C)[C@H](NC(=O)[C@H](CO)NC(=O)[C@H](Cc1ccc(O)cc1)NC(=O)[C@H](CC(=O)O)NC(=O)[C@H](CO)NC(=O)[C@@H](NC(=O)[C@](C)(Cc1ccccc1F)NC(=O)[C@@H](NC(=O)CNC(=O)[C@H](CCC(=O)O)NC(=O)C(C)(C)NC(=O)[C@@H](N)Cc1ccc(O)cc1)[C@@H](C)O)[C@@H](C)CC)C(=O)N[C@@H](C)C(=O)N[C@@H](CC(C)C)C(=O)N[C@@H](CC(=O)O)C(=O)N[C@@H](CCCCN)C(=O)N[C@H](C(=O)N[C@@H](Cc1c[nH]cn1)C(=O)N[C@@H](CCC(N)=O)C(=O)NC(C)(C)C(=O)N[C@@H](CCC(=O)O)C(=O)N[C@@H](Cc1ccccc1)C(=O)N[C@H](C(=O)N[C@@H](CC(N)=O)C(=O)N[C@@H](Cc1ccc(O)cc1)C(=O)N[C@@H](CCCCNC(=O)COCCOCCNC(=O)COCCOCCNC(=O)CC[C@H](NC(=O)CCCCCCCCCCCCCCCCCCC(=O)O)C(=O)O)C(=O)N[C@@H](CC(C)C)C(=O)N[C@@H](CCC(=O)O)C(=O)NCC(=O)NCC(=O)N1CCC[C@H]1C(=O)N[C@@H](CO)C(=O)N[C@@H](CO)C(=O)NCC(=O)N[C@@H](C)C(=O)N1CCC[C@H]1C(=O)N1CCC[C@H]1C(=O)N1CCC[C@H]1C(=O)N[C@@H](CO)C(N)=O)C(C)C)[C@@H](C)CC [Example 95] (H-Y[Aib]EGT[αMePhe(2-F)]ISDYSIALDKIHQ[Aib]EFVNYK([AEEA-AEEA-γGlu-C20 diacid])LEGGPSSGAPPPS-NH2) | 85 |
| CC[C@H](C)[C@H](NC(=O)[C@H](CCCN)NC(=O)[C@H](CC(=O)O)NC(=O)[C@H](CC(C)C)NC(=O)[C@](C)(CC(C)C)NC(=O)[C@@H](NC(=O)[C@H](CO)NC(=O)[C@H](Cc1ccc(O)cc1)NC(=O)[C@H](CC(=O)O)NC(=O)[C@H](CO)NC(=O)[C@@H](NC(=O)[C@H](Cc1ccccc1)NC(=O)[C@@H](NC(=O)CNC(=O)[C@H](CCC(=O)O)NC(=O)C(C)(C)NC(=O)[C@@H](N)Cc1ccc(O)cc1)[C@@H](C)O)[C@@H](C)CC)[C@@H](C)CC)C(=O)N[C@@H](Cc1c[nH]cn1)C(=O)N[C@@H](CCC(N)=O)C(=O)NC(C)(C)C(=O)N[C@@H](CC(=O)O)C(=O)N[C@@H](Cc1ccccc1)C(=O)N[C@H](C(=O)N[C@@H](CCC(=O)O)C(=O)N[C@@H](Cc1ccncc1)C(=O)N[C@@H](CCCCNC(=O)COCCOCCNC(=O)COCCOCCNC(=O)CC[C@H](NC(=O)CCCCCCCCCCCCCCCCC(=O)O)C(=O)O)C(=O)N[C@@H](CC(C)C)C(=O)N[C@@H](CCC(=O)O)C(=O)NCC(=O)NCC(=O)N1CCC[C@H]1C(=O)N[C@@H](CO)C(=O)N[C@@H](CO)C(=O)NCC(=O)N[C@@H](C)C(=O)N1CCC[C@H]1C(=O)N1CCC[C@H]1C(=O)N1CCC[C@H]1C(=O)N[C@@H](CO)C(N)=O)C(C)C [Example 111] (H-Y[Aib]EGTFISDYSI[αMeL]LD[Orn]IHQ[Aib]DFVE[4Pal]K([AEEA-AEEA-γGlu-C18 diacid])LEGGPSSGAPPPS-NH2) | > 960 |
| CC[C@H](C)[C@H](NC(=O)[C@H](CCCN)NC(=O)[C@H](CC(=O)O)NC(=O)[C@H](CC(C)C)NC(=O)[C@](C)(CC(C)C)NC(=O)[C@@H](NC(=O)[C@H](CO)NC(=O)[C@H](Cc1ccc(O)cc1)NC(=O)[C@H](CC(=O)O)NC(=O)[C@H](CO)NC(=O)[C@@H](NC(=O)[C@H](Cc1ccccc1)NC(=O)[C@@H](NC(=O)CNC(=O)[C@H](CCC(=O)O)NC(=O)C(C)(C)NC(=O)[C@@H](N)Cc1ccc(O)cc1)[C@@H](C)O)[C@@H](C)CC)[C@@H](C)CC)C(=O)N[C@@H](Cc1c[nH]cn1)C(=O)N[C@@H](CCC(N)=O)C(=O)NC(C)(C)C(=O)N[C@@H](CC(=O)O)C(=O)N[C@@H](Cc1ccccc1)C(=O)N[C@H](C(=O)N[C@@H](CCC(=O)O)C(=O)N[C@@H](Cc1ccncc1)C(=O)N[C@@H](CCCCNC(=O)COCCOCCNC(=O)COCCOCCNC(=O)CC[C@H](NC(=O)CCCCCCCCCCCCCCCCCCC(=O)O)C(=O)O)C(=O)N[C@@H](CC(C)C)C(=O)N[C@@H](CCC(=O)O)C(=O)NCC(=O)NCC(=O)N1CCC[C@H]1C(=O)N[C@@H](CO)C(=O)N[C@@H](CO)C(=O)NCC(=O)N[C@@H](C)C(=O)N1CCC[C@H]1C(=O)N1CCC[C@H]1C(=O)N1CCC[C@H]1C(=O)N[C@@H](CO)C(N)=O)C(C)C [Example 108] (H-Y[Aib]EGTFISDYSI[αMeL]LD[Orn]IHQ[Aib]DFVE[4Pal]K([AEEA-AEEA-γGlu-C20 diacid])LEGGPSSGAPPPS-NH2) | > 960 |
| CC[C@H](C)[C@H](NC(=O)[C@H](CO)NC(=O)[C@H](Cc1ccc(O)cc1)NC(=O)[C@H](CC(=O)O)NC(=O)[C@H](CO)NC(=O)[C@@H](NC(=O)[C@H](Cc1ccccc1)NC(=O)[C@@H](NC(=O)CNC(=O)[C@H](CCC(=O)O)NC(=O)[C@@H](C)NC(=O)[C@@H](N)Cc1ccc(O)cc1)[C@@H](C)O)[C@@H](C)CC)C(=O)N[C@@H](CC(C)C)C(=O)N[C@@H](CC(C)C)C(=O)N[C@@H](CC(=O)O)C(=O)N[C@@H](CCCCN)C(=O)N[C@@H](CCCCNC(=O)COCCOCCNC(=O)COCCOCCNC(=O)CC[C@H](NC(=O)CCCCCCCCCCCCCCCCC(=O)O)C(=O)O)C(=O)N[C@@H](C)C(=O)N[C@@H](CCC(N)=O)C(=O)NC(C)(C)C(=O)N[C@@H](CC(=O)O)C(=O)N[C@@H](Cc1ccccc1)C(=O)N[C@H](C(=O)N[C@@H](CC(N)=O)C(=O)N[C@@H](Cc1c[nH]c2ccccc12)C(=O)N[C@@H](CC(C)C)C(=O)N[C@@H](CC(C)C)C(=O)N[C@@H](CCC(=O)O)C(=O)N[C@@H](CCC(N)=O)C(=O)NCC(=O)N1CCC[C@H]1C(=O)N[C@@H](CO)C(=O)N[C@@H](CO)C(=O)NCC(=O)N[C@@H](C)C(=O)N1CCC[C@H]1C(=O)N1CCC[C@H]1C(=O)N1CCC[C@H]1C(=O)N[C@@H](CO)C(N)=O)C(C)C [Example 17] (H-Y[dA]EGTFISDYSILLDKK([AEEA-AEEA-γGlu-C18 diacid])AQ[Aib]DFVNWLLEQGPSSGAPPPS-NH2) | 274 |
| CC[C@H](C)[C@H](NC(=O)[C@H](CO)NC(=O)[C@H](Cc1ccc(O)cc1)NC(=O)[C@H](CC(=O)O)NC(=O)[C@H](CO)NC(=O)[C@@H](NC(=O)[C@](C)(CC)NC(=O)[C@@H](NC(=O)CNC(=O)[C@H](CCC(=O)O)NC(=O)C(C)(C)NC(=O)[C@@H](N)Cc1ccc(O)cc1)[C@@H](C)O)[C@@H](C)CC)C(=O)N[C@@](C)(CC(C)C)C(=O)N[C@@H](CC(C)C)C(=O)N[C@@H](CC(=O)O)C(=O)N[C@@H](CCCCN)C(=O)N[C@@H](CCCCNC(=O)COCCOCCNC(=O)COCCOCCNC(=O)CC[C@H](NC(=O)CCCCCCCCCCCCCCCCCCC(=O)O)C(=O)O)C(=O)N[C@@H](Cc1c[nH]cn1)C(=O)N[C@@H](CCC(N)=O)C(=O)NC(C)(C)C(=O)N[C@@H](CC(=O)O)C(=O)N[C@@H](Cc1ccccc1)C(=O)N[C@H](C(=O)N[C@@H](CCC(=O)O)C(=O)N[C@@H](Cc1ccncc1)C(=O)N[C@@H](CC(C)C)C(=O)N[C@@H](CC(C)C)C(=O)N[C@@H](CCC(=O)O)C(=O)N[C@H](C(=O)NCC(=O)N1CCC[C@H]1C(=O)N[C@@H](CO)C(=O)N[C@@H](CO)C(=O)NCC(=O)N[C@@H](C)C(=O)N1CCC[C@H]1C(=O)N1CCC[C@H]1C(=O)N1CCC[C@H]1C(=O)N[C@@H](CO)C(N)=O)[C@@H](C)O)C(C)C [Example 75] (H-Y[Aib]EGT[Iva]ISDYSI[αMeL]LDKK([AEEA-AEEA-γGlu-C20 diacid])HQ[Aib]DFVE[4Pal]LLETGPSSGAPPPS-NH2) | > 958 |
| CC[C@H](C)[C@H](NC(=O)[C@H](Cc1ccccc1)NC(=O)[C@@H](NC(=O)CNC(=O)[C@H](CCC(=O)O)NC(=O)C(C)(C)NC(=O)[C@@H](N)Cc1ccc(O)cc1)[C@@H](C)O)C(=O)N[C@@H](CO)C(=O)N[C@@H](CC(=O)O)C(=O)N[C@@H](Cc1ccc(O)cc1)C(=O)N[C@@H](CO)C(=O)N[C@H](C(=O)N[C@@](C)(CC(C)C)C(=O)N[C@@H](CC(C)C)C(=O)N[C@@H](CC(=O)O)C(=O)N[C@@H](CCCN)C(=O)N[C@@H](CCCCNC(=O)COCCOCCNC(=O)COCCOCCNC(=O)CC[C@H](NC(=O)CCCCCCCCCCCCCCCCCCC(=O)O)C(=O)O)C(=O)N[C@@H](Cc1c[nH]cn1)C(=O)N[C@@H](CCC(N)=O)C(=O)NC(C)(C)C(=O)N[C@@H](CC(=O)O)C(=O)N[C@@H](Cc1ccccc1)C(=O)N[C@H](C(=O)N[C@@H](CCC(=O)O)C(=O)N[C@@H](Cc1ccncc1)C(=O)N[C@@H](CC(C)C)C(=O)N[C@@H](CC(C)C)C(=O)N[C@@H](CCC(=O)O)C(=O)NCC(=O)NCC(=O)N1CCC[C@H]1C(=O)N[C@@H](CO)C(=O)N[C@@H](CO)C(=O)NCC(=O)N[C@@H](C)C(=O)N1CCC[C@H]1C(=O)N1CCC[C@H]1C(=O)N1CCC[C@H]1C(=O)N[C@@H](CO)C(N)=O)C(C)C)[C@@H](C)CC [Example 82] (H-Y[Aib]EGTFISDYSI[αMeL]LD[Orn]K([AEEA-AEEA-γGlu-C20 diacid])HQ[Aib]DFVE[4Pal]LLEGGPSSGAPPPS-NH2) | 305 |
| CC[C@H](C)[C@H](NC(=O)[C@H](CO)NC(=O)[C@H](Cc1ccc(O)cc1)NC(=O)[C@H](CC(=O)O)NC(=O)[C@H](CO)NC(=O)[C@@H](NC(=O)[C@](C)(Cc1ccccc1F)NC(=O)[C@@H](NC(=O)CNC(=O)[C@H](CCC(=O)O)NC(=O)C(C)(C)NC(=O)[C@@H](N)Cc1ccc(O)cc1)[C@@H](C)O)[C@@H](C)CC)C(=O)N[C@@H](C)C(=O)N[C@@H](CC(C)C)C(=O)N[C@@H](CC(=O)O)C(=O)N[C@@H](CCCCN)C(=O)N[C@H](C(=O)N[C@@H](Cc1c[nH]cn1)C(=O)N[C@@H](CCC(N)=O)C(=O)NC(C)(C)C(=O)N[C@@H](CC(=O)O)C(=O)N[C@@H](Cc1ccccc1)C(=O)N[C@H](C(=O)N[C@@H](CCC(=O)O)C(=O)N[C@@H](Cc1ccncc1)C(=O)N[C@@H](CCCCNC(=O)COCCOCCNC(=O)COCCOCCNC(=O)CC[C@H](NC(=O)CCCCCCCCCCCCCCCCCCC(=O)O)C(=O)O)C(=O)N[C@@H](CC(C)C)C(=O)N[C@@H](CCC(=O)O)C(=O)NCC(=O)NCC(=O)N1CCC[C@H]1C(=O)N[C@@H](CO)C(=O)N[C@@H](CO)C(=O)NCC(=O)N[C@@H](C)C(=O)N1CCC[C@H]1C(=O)N1CCC[C@H]1C(=O)N1CCC[C@H]1C(=O)N[C@@H](CO)C(N)=O)C(C)C)[C@@H](C)CC [Example 112] (H-Y[Aib]EGT[αMePhe(2-F)]ISDYSIALDKIHQ[Aib]DFVE[4Pal]K([AEEA-AEEA-γGlu-C20 diacid])LEGGPSSGAPPPS-NH2) | 257 |

Source: US12723063B2, “GIPR-agonist compounds” (Eli Lilly and Company, priority 2019, dated 2026)
